Counter-ions that a name gives are not always drawn. Like-named read-outs stand apart in the source and are kept apart here.
Legend:
CK2 = CK2 (Homo sapiens, UniProt P68400); test: CK2 inhibition, biochemical chemiluminescence holoenzyme assay (Kinase Glo, IC50 determination); details: Table 1 activity class; symbol given only if active; read-out: CK2 IC50 (Activity C)
How it was run: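 Holoenzyme CK2 assay; compounds pre-incubated with substrate and enzyme, then reacted 150 min at 24-27° C. Remaining ATP measured as luminescence with Kinase Glo, and IC50 derived from the signal.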

CDC7 = CDC7 (Homo sapiens, UniProt O00311); test: CDC7 inhibition, biochemical chemiluminescence assay (Kinase Glo, IC50 determination)
Sequence of CDC7 (O00311 whole entry): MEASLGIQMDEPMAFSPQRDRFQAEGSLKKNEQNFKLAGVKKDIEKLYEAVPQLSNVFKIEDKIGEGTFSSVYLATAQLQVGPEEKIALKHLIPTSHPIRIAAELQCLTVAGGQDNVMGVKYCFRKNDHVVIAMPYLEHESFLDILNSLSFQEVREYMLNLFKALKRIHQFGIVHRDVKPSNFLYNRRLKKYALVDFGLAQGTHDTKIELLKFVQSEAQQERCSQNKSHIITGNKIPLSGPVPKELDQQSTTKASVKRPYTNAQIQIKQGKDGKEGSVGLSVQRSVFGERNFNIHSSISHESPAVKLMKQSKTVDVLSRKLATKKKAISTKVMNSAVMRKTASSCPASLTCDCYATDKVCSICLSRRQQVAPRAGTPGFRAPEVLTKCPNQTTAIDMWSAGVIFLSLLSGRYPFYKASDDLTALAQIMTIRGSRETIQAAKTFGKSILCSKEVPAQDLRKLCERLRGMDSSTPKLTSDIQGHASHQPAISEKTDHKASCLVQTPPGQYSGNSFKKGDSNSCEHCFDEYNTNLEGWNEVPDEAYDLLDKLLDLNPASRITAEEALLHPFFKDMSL
Sequence of CDC7 (Q9UBU7 whole entry partner): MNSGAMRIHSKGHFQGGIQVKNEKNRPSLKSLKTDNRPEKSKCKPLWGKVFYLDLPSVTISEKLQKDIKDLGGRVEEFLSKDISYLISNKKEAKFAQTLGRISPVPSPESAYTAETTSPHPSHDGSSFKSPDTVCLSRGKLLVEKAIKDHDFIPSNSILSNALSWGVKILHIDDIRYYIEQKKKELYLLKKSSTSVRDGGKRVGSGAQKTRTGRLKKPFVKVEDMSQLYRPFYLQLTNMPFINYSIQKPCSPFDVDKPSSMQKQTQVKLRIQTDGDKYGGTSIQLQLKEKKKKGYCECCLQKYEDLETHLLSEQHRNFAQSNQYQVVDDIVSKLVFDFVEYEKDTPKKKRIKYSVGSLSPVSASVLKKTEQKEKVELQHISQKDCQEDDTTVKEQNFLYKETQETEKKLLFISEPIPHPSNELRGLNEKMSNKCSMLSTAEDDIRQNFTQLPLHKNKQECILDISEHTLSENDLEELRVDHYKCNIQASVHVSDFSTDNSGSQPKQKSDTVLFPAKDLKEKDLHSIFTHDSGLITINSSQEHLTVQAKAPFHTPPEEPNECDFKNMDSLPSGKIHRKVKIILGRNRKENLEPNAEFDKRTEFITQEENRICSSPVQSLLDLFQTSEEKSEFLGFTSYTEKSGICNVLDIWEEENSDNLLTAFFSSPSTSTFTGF
How it was run: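 CDC7 enzyme preincubated with compound 10 min at ambient temperature, then ATP mix in Tris Base added; reaction 90 min at 24-27 °C. Remaining ATP quantified by Kinase Glo luminescence to give IC50.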

[1] = target: PIM (PIM-1, PIM-2, and/or PIM-3); test: PIM-1, PIM-2 and PIM-3 inhibition, biochemical chemiluminescence assays (Kinase Glo, IC50 determination); details: Table 1 activity class; PIM refers to PIM-1, PIM-2, and/or PIM-3; read-out: PIM IC50 (Activity B)
[2] = Table 1 activity class, symbol given only if active, read-out: CDC7 IC50 (Activity A)
[3] = compounds in Table 1, read-out: CDC7 IC50 value

Sequence of CK2 (P68400 whole entry): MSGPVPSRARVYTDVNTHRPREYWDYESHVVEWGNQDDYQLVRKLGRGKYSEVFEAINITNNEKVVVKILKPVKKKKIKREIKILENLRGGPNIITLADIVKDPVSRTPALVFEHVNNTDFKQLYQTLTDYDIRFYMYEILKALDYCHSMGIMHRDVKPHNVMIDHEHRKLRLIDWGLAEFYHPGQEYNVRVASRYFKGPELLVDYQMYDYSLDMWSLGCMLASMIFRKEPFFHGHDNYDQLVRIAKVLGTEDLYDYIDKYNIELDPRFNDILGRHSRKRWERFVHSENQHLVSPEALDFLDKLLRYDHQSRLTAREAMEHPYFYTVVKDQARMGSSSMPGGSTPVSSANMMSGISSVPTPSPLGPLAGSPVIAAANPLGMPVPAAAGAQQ
Sequence of CK2 (P67870 whole entry partner): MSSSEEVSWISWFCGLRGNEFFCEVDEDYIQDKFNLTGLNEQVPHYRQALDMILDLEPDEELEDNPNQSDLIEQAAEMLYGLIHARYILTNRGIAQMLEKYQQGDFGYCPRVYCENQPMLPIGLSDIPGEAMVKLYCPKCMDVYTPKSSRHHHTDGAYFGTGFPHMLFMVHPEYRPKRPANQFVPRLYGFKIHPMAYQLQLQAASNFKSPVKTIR

Structure (SMILES) | IC50 (CK2) | IC50 (CDC7; [2]) | IC50 (CDC7; [3]) | IC50 [1]
O=c1[nH]c(CNCCc2c[nH]cn2)nc2c1oc1ccc(Br)cc12 [Compound 259, 8-bromo-2-({[2-(1H-imidazol-4-yl)ethyl]amino}methyl)[1]benzofuro[3,2-d]pyrimidin-4(3H)-one] | < 10 µM | < 10 µM | < 0.1 µM | < 10 µM
N[C@H](c1ccccc1)c1nc2c(oc3ccc(Br)cc32)c(=O)[nH]1 [Compound 490, 2-[(R)-amino(phenyl)methyl]-8-bromo[1]benzofuro[3,2-d]pyrimidin-4(3H)-one] | < 10 µM | < 10 µM | < 0.1 µM | < 10 µM
O=c1[nH]c(CN2CC[C@H](O)C2)nc2c1oc1ccc(NCCc3cccc(Cl)c3)cc12 [Compound 444, 8-{[2-(3-chlorophenyl)ethyl]amino}-2-{[(3S)-3-hydroxypyrrolidin-1-yl]methyl}[1]benzofuro[3,2-d]pyrimidin-4(3H)-one] | < 10 µM | < 10 µM | – | < 10 µM
COc1ccc2oc3c(=O)[nH]c([C@@H]4CC(F)(F)CN4)nc3c2c1 [Compound 531, 2-[(2S)-4,4-difluoropyrrolidin-2-yl]-8-(methyloxy)[1]benzofuro[3,2-d]pyrimidin-4(3H)-one] | < 10 µM | < 10 µM | < 0.1 µM | < 10 µM
O=C(CC1CCNCC1)Nc1ccc(-c2nc3c(oc4ccc(Br)cc43)c(=O)[nH]2)c(Cl)c1 [Compound 217, N-[4-(8-bromo-4-oxo-3,4-dihydro[1]benzofuro[3,2-d]pyrimidin-2-yl)-3-chlorophenyl]-2-piperidin-4-ylacetamide] | < 10 µM | < 10 µM | – | < 10 µM
O=c1[nH]c([C@@H]2CC(F)(F)CN2)nc2c1oc1ccc(Br)cc12 [Compound 512, 8-bromo-2-[(2S)-4,4-difluoropyrrolidin-2-yl][1]benzofuro[3,2-d]pyrimidin-4(3H)-one] | < 10 µM | < 10 µM | < 0.1 µM | < 10 µM
NCCNc1nc2c(oc3ccc(Br)cc32)c(=O)[nH]1 [Compound 231, 2-[(2-aminoethyl)amino]-8-bromo[1]benzofuro[3,2-d]pyrimidin-4(3H)-one] | < 10 µM | < 10 µM | < 0.1 µM | < 10 µM
O=c1[nH]c(-c2ccccc2I)nc2c1oc1ccc(Br)cc12 [Compound 40, 8-bromo-2-(2-iodophenyl)[1]benzofuro[3,2-d]pyrimidin-4(3H)-one] | < 10 µM | < 10 µM | – | < 10 µM
O=c1[nH]c(C2CCCCN2)nc2c1oc1ccc(Br)cc12 (centres unmarked) [Compound 534, 8-Bromo-2-piperidin-2-yl[1]benzofuro[3,2-d]pyrimidin-4(3H)-one hydrochloride] | < 10 µM | < 10 µM | < 0.1 µM | < 10 µM
O=C(Cc1c[nH]cn1)Nc1ccc(-c2nc3c(oc4ccc(Br)cc43)c(=O)[nH]2)c(Cl)c1 [Compound 182, N-[4-(8-bromo-4-oxo-3,4-dihydro[1]benzofuro[3,2-d]pyrimidin-2-yl)-3-chlorophenyl]-2-(1H-imidazol-4-yl)acetamide] | < 10 µM | < 10 µM | – | < 10 µM
O=c1[nH]c(C2CCNCC2)nc2c1oc1ccc(Br)cc12 [Compound 157, 8-bromo-2-piperidin-4-yl[1]benzofuro[3,2-d]pyrimidin-4(3H)-one] | < 10 µM | < 10 µM | < 0.1 µM | < 10 µM
O=C(Cc1cccnc1)Nc1ccc(-c2nc3c(oc4ccc(Br)cc43)c(=O)[nH]2)c(Cl)c1 [Compound 322, N-[4-(8-bromo-4-oxo-3,4-dihydro[1]benzofuro[3,2-d]pyrimidin-2-yl)-3-chlorophenyl]-2-pyridin-3-ylacetamide] | < 10 µM | < 10 µM | – | < 10 µM
Cc1cc2c(cc1[N+](=O)O)oc1c(=O)[nH]c(CN3CC[C@H](O)C3)nc12 [Compound 433, hydroxy(2-{[(3S)-3-hydroxypyrrolidin-1-yl]methyl}-8-methyl-4-oxo-3,4-dihydro[1]benzofuro[3,2-d]pyrimidin-7-yl)oxoammonium] | < 10 µM | < 10 µM | – | < 10 µM
CN1CCN(c2nc3c(oc4ccc(Br)cc43)c(=O)[nH]2)CC1 [Compound 115, 8-bromo-2-(4-methylpiperazin-1-yl)[1]benzofuro[3,2-d]pyrimidin-4(3H)-one] | < 10 µM | < 10 µM | – | < 10 µM
CN(C)Cc1nc2c(oc3ccc(Br)cc32)c(=O)[nH]1 [Compound 517, 8-bromo-2-[(dimethylamino)methyl][1]benzofuro[3,2-d]pyrimidin-4(3H)-one] | < 10 µM | < 10 µM | < 0.1 µM | < 10 µM
O=c1[nH]c(CNC2CC2)nc2c1oc1ccc(Br)cc12 [Compound 521, 8-bromo-2-[(cyclopropylamino)methyl][1]benzofuro[3,2-d]pyrimidin-4(3H)-one] | < 10 µM | < 10 µM | < 0.1 µM | < 10 µM
O=c1[nH]c([C@@H]2C[C@H](O)CN2)nc2c1oc1ccc(Br)cc12 [Compound 511, 8-bromo-2-[(2S,4S)-4-hydroxypyrrolidin-2-yl][1]benzofuro[3,2-d]pyrimidin-4(3H)-one] | < 10 µM | < 10 µM | < 0.1 µM | < 10 µM
N[C@@H](c1ccccc1)c1nc2c(oc3ccc(Br)cc32)c(=O)[nH]1 [Compound 489, 2-[(S)-amino(phenyl)methyl]-8-bromo[1]benzofuro[3,2-d]pyrimidin-4(3H)-one] | < 10 µM | < 10 µM | < 0.1 µM | < 10 µM
CN1CCN(Cc2nc3c(oc4cc(O)c(Br)cc43)c(=O)[nH]2)CC1 [Compound 438, 8-bromo-7-hydroxy-2-[(4-methylpiperazin-1-yl)methyl][1]benzofuro[3,2-d]pyrimidin-4(3H)-one] | < 10 µM | < 10 µM | – | < 10 µM
CCC(C)NCc1nc2c(oc3ccc(Br)cc32)c(=O)[nH]1 (centres unmarked) [Compound 232, 8-bromo-2-{[(1-methylpropyl)amino]methyl}[1]benzofuro[3,2-d]pyrimidin-4(3H)-one] | < 10 µM | < 10 µM | < 0.1 µM | < 10 µM
CN(C)C(=O)CN1CCN(Cc2nc3c(oc4ccc(Br)cc43)c(=O)[nH]2)CC1 [Compound 25, 2-{4-[(8-bromo-4-oxo-3,4-dihydro[1]benzofuro[3,2-d]pyrimidin-2-yl)methyl]piperazin-1-yl}-N,N-dimethylacetamide] | < 10 µM | < 10 µM | – | < 10 µM
O=c1[nH]c(CN2CCC[C@@H]2CO)nc2c1oc1ccc(Br)cc12 [Compound 344, 8-bromo-2-{[(2R)-2-(hydroxymethyl)pyrrolidin-1-yl]methyl}[1]benzofuro[3,2-d]pyrimidin-4(3H)-one] | < 10 µM | < 10 µM | < 0.1 µM | < 10 µM
C[C@@H](N)c1nc2c(oc3ccc(Br)cc32)c(=O)[nH]1 [Compound 493, 2-[(1R)-1-aminoethyl]-8-bromo[1]benzofuro[3,2-d]pyrimidin-4(3H)-one] | < 10 µM | < 10 µM | < 0.1 µM | < 10 µM
CO[C@H]1CCN(Cc2nc3c(oc4ccc(Br)cc43)c(=O)[nH]2)C1 [Compound 369, 8-bromo-2-{[(3S)-3-(methyloxy)pyrrolidin-1-yl]methyl}[1]benzofuro[3,2-d]pyrimidin-4(3H)-one] | < 10 µM | < 10 µM | < 0.1 µM | < 10 µM
CC(=O)Nc1ccc(-c2nc3c(oc4ccc(Br)cc43)c(=O)[nH]2)c(Cl)c1 [Compound 121, N-[4-(8-bromo-4-oxo-3,4-dihydro[1]benzofuro[3,2-d]pyrimidin-2-yl)-3-chlorophenyl]acetamide] | < 10 µM | < 10 µM | – | < 10 µM
O=c1[nH]c(CN2CC[C@H](F)C2)nc2c1oc1ccc(Br)cc12 [Compound 308, 8-bromo-2-{[(3S)-3-fluoropyrrolidin-1-yl]methyl}[1]benzofuro[3,2-d]pyrimidin-4(3H)-one] | < 10 µM | < 10 µM | < 0.1 µM | < 10 µM
O=c1[nH]c([C@@H]2CCCN2)nc2c1oc1ccc(Br)cc12 [Compound 470, 8-bromo-2-[(2S)-pyrrolidin-2-yl][1]benzofuro[3,2-d]pyrimidin-4(3H)-one] | < 10 µM | < 10 µM | < 0.1 µM | < 10 µM
NCCNC(=O)c1ccc(C(=O)Nc2ccc(-c3nc4c(oc5ccc(Br)cc54)c(=O)[nH]3)c(Cl)c2)nc1 [Compound 394, ′N′5′-(2-aminoethyl)-N′2′-[4-(8-bromo-4-oxo-3,4-dihydro[1]benzofuro[3,2-d]pyrimidin-2-yl)-3-chlorophenyl]pyridine-2,5-dicarboxamide] | < 10 µM | < 10 µM | – | < 10 µM
CNC1CCN(Cc2nc3c(oc4ccc(Br)cc43)c(=O)[nH]2)C1 (centres unmarked) [Compound 118, 8-bromo-2-{[3-(methylamino)pyrrolidin-1-yl]methyl}[1]benzofuro[3,2-d]pyrimidin-4(3H)-one] | < 10 µM | < 10 µM | – | < 10 µM
O=C(Nc1ccc(-c2nc3c(oc4ccc(Br)cc43)c(=O)[nH]2)c(Cl)c1)c1cncnc1 [Compound 328, N-[4-(8-bromo-4-oxo-3,4-dihydro[1]benzofuro[3,2-d]pyrimidin-2-yl)-3-chlorophenyl]pyrimidine-5-carboxamide] | < 10 µM | < 10 µM | – | < 10 µM

— US20090247559A1 (Exelixis, Inc., priority 2007, published 2009)
